Tests used:
VgEcR/RXR = assay: Original VgEcR/RXR luciferase reporter co-transfection assay in HEK293 cells; format: cell-based, human; details: ligand alone at 1 µM or 10 µM, HEK293, 20 h
VgGR/RXR = target: T1, VgGR/RXR (Homo sapiens, UniProt P04150+P19793, F602S); assay: VgGR/RXR luciferase reporter co-transfection assay in HEK293 cells; format: cell-based
T1 sequence (P04150 523-777 F602S limits assumed): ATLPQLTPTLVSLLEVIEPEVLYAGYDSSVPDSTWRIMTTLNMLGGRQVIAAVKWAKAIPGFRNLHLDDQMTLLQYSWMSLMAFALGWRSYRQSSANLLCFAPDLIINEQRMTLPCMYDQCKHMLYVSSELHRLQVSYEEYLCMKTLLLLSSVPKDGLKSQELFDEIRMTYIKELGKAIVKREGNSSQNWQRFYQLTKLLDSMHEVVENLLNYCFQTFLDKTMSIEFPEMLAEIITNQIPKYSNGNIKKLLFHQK
T1 sequence (P19793 1-462): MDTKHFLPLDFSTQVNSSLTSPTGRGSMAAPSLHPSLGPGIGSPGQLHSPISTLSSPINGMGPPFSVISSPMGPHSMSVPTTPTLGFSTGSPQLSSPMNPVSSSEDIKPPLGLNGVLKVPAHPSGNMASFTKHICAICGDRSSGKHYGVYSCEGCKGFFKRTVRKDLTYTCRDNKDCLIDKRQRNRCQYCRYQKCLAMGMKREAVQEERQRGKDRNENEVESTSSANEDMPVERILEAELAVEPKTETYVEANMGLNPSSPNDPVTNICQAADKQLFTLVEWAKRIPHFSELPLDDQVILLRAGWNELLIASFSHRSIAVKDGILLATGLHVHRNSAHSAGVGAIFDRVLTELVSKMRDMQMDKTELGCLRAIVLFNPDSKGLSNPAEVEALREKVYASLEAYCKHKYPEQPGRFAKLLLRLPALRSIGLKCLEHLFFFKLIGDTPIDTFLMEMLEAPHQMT

For `C[C@@H]1C[C@H]2[C@@H]3CCC4=CC(=O)C=C[C@]4(C)[C@@]3(F)[C@@H](O)C[C@]2(C)[C@@]1(O)C(=O)CO` [DEX, dexamethasone], the “Response of original VgEcR/RXR reporter expression to ligand” value (VgEcR/RXR) was “did not respond” and the “Maximal activation of reporter expression by ligand alone” value (VgGR/RXR) was “around one order of magnitude”.

In the case of `C[C@]12C=CC(=O)C=C1CC[C@@H]1[C@@H]2[C@@H](O)C[C@@]2(C)[C@H]1CC[C@]2(O)C(=O)CO` [PRED, prednisolone], the “Response of original VgEcR/RXR reporter expression to ligand” value (VgEcR/RXR) is reported as “did not respond”.

In the case of `CC(C)CC[C@@H](O)[C@](C)(O)[C@H]1CC[C@@]2(O)C3=CC(=O)[C@@H]4C[C@@H](O)[C@@H](O)C[C@]4(C)[C@H]3CC[C@]12C` [PonA, ponasterone A], the “Response of VgGR/RXR reporter expression to ligand” value (VgGR/RXR; ligand alone, HEK293, 20 h) is reported as “did not respond”.

`CC#C[C@]1(O)CC[C@H]2[C@@H]3CCC4=CC(=O)CCC4=C3[C@@H](c3ccc(N(C)C)cc3)C[C@@]21C` [RU-486, mifepristone] was tested, and the “Effect of increasing antagonist concentration on DEX-activated output” value (VgGR/RXR) was “reduction of output levels” and the “Effect on reporter expression in the absence of DEX” value (VgGR/RXR) was “increase in reporter expression”.

Source: article PMC10367131 (ACS Synthetic Biology, 2023)
